Species: Rattus norvegicus
Assay: Open TG-GATES - Regimen: Daily Repeat
Type: toxicity, organism-based, Sprague-Dawley
Parameters: regimen Daily Repeat, gender Male, age 6 weeks
Conditions: in vivo, po, 100 mg/kg, route gavage, dose level High; for APTT / Bas / Eos / Fbg / Hb / Ht / Lym / MCH / MCHC / MCV / Mono / Neu / PT / Plat / RBC / Ret / WBC: tissue Blood; for KIDNEY_L / KIDNEY_R / KIDNEY_TOTAL: tissue Kidney; for LIVER: tissue Liver; for ALP / ALT / AST / BUN / CRE / Ca / DBIL / GLC / IP / K / LDH / Na / PL / RALB / TBIL / TC / TG / TP / gamma-GTP: tissue Plasma

## CSc1ccc2c(c1)N(CCC1CCCCN1C)c1ccccc1S2 (centres undefined) [THIORIDAZINE]
72 h, time 3 day
  TERMINAL_BW: 219.1 g
  APTT: 15.9 s
  Bas: 0%
  Eos: 1%
  Fbg: 196.2 mg/dL
  Hb: 13.9 g/dL
  Ht: 41.9%
  Lym: 81.4%
  MCH: 21.4 pg
  MCHC: 33.2%
  MCV: 64.4 fL
  Mono: 5.4%
  Neu: 12.2%
  PT: 11.9 s
  Plat: 117.8 x10_4/uL
  RBC: 651.2 x10_4/ul
  Ret: 6.1%
  WBC: 136.4 x10_2/uL
  KIDNEY_L: 1 g
  KIDNEY_R: 1 g
  KIDNEY_TOTAL: 2 g
  LIVER: 12.2 g
  ALP: 887.2 IU/L
  ALT: 40 IU/L
  AST: 63.2 IU/L
  BUN: 19.4 mg/dL
  CRE: 0.5 mg/dL
  Ca: 10.9 mg/dL
  DBIL: 0.062 mg/dL
  GLC: 187.6 mg/dL
  IP: 9.4 mg/dL
  K: 4.5 meq/L
  LDH: 158.8 IU/L
  Na: 139.8 meq/L
  PL: 164 mg/dL
  RALB: 4 g/dL
  TBIL: 0.2 mg/dL
  TC: 84 mg/dL
  TG: 92.4 mg/dL
  TP: 5.9 g/dL
  gamma-GTP: 1.6 IU/L
[…], time 7 day
  TERMINAL_BW: 252.6 g
  APTT: 16.5 s
  Bas: 0%
  Eos: 0.2%
  Fbg: 213 mg/dL
  Hb: 14.3 g/dL
  Ht: 43.2%
  Lym: 80%
  MCH: 21.3 pg
  MCHC: 33.1%
  MCV: 64.2 fL
  Mono: 7.6%
  Neu: 12%
  PT: 12.3 s
  Plat: 98.4 x10_4/uL
  RBC: 672 x10_4/ul
  Ret: 4.6%
  WBC: 144.8 x10_2/uL
  KIDNEY_L: 1.2 g
  KIDNEY_R: 1.2 g
  KIDNEY_TOTAL: 2.3 g
  LIVER: 12.3 g
  ALP: 928.2 IU/L
  ALT: 34.2 IU/L
  AST: 64 IU/L
  BUN: 16 mg/dL
  CRE: 0.5 mg/dL
  Ca: 11.2 mg/dL
  DBIL: 0.008 mg/dL
  GLC: 199.8 mg/dL
  IP: 9.7 mg/dL
  K: 4.6 meq/L
  LDH: 100.2 IU/L
  Na: 141.6 meq/L
  PL: 166.8 mg/dL
  RALB: 3.8 g/dL
  TBIL: 0.4 mg/dL
  TC: 79 mg/dL
  TG: 132.4 mg/dL
  TP: 5.7 g/dL
  gamma-GTP: 1.4 IU/L
[…], time 14 day
  TERMINAL_BW: 299.8 g
  APTT: 17.8 s
  Bas: 0%
  Eos: 0.8%
  Fbg: 242.8 mg/dL
  Hb: 15.2 g/dL
  Ht: 45.7%
  Lym: 75%
  MCH: 20.8 pg
  MCHC: 33.3%
  MCV: 62.5 fL
  Mono: 6%
  Neu: 18.2%
  PT: 11.9 s
  Plat: 112.1 x10_4/uL
  RBC: 733.4 x10_4/ul
  Ret: 4.4%
  WBC: 145.8 x10_2/uL
  KIDNEY_L: 1.3 g
  KIDNEY_R: 1.3 g
  KIDNEY_TOTAL: 2.6 g
  LIVER: 13.6 g
  ALP: 741.8 IU/L
  ALT: 30.4 IU/L
  AST: 61.2 IU/L
  BUN: 16.4 mg/dL
  CRE: 0.6 mg/dL
  Ca: 10.9 mg/dL
  DBIL: 0.02 mg/dL
  GLC: 178.2 mg/dL
  IP: 9.2 mg/dL
  K: 5.2 meq/L
  LDH: 189 IU/L
  Na: 142.8 meq/L
  PL: 152.2 mg/dL
  RALB: 4 g/dL
  TBIL: 0.4 mg/dL
  TC: 80.2 mg/dL
  TG: 83.4 mg/dL
  TP: 6.1 g/dL
  gamma-GTP: 1.4 IU/L
[…], time 28 day
  TERMINAL_BW: 349.4 g
  APTT: 17.7 s
  Bas: 0%
  Eos: 0.6%
  Fbg: 225.4 mg/dL
  Hb: 15.6 g/dL
  Ht: 46.6%
  Lym: 80.4%
  MCH: 19.3 pg
  MCHC: 33.4%
  MCV: 57.7 fL
  Mono: 5.6%
  Neu: 13.8%
  PT: 12.5 s
  Plat: 92.7 x10_4/uL
  RBC: 808.8 x10_4/ul
  Ret: 2.5%
  WBC: 142.8 x10_2/uL
  KIDNEY_L: 1.4 g
  KIDNEY_R: 1.4 g
  KIDNEY_TOTAL: 2.8 g
  LIVER: 15.1 g
  ALP: 742.4 IU/L
  ALT: 35.4 IU/L
  AST: 55.8 IU/L
  BUN: 18.6 mg/dL
  CRE: 0.6 mg/dL
  Ca: 10.7 mg/dL
  DBIL: 0.006 mg/dL
  GLC: 176.4 mg/dL
  IP: 7.7 mg/dL
  K: 4.9 meq/L
  LDH: 115.4 IU/L
  Na: 142.6 meq/L
  PL: 160 mg/dL
  RALB: 4.1 g/dL
  TBIL: 0.2 mg/dL
  TC: 80.2 mg/dL
  TG: 111.4 mg/dL
  TP: 6.4 g/dL
  gamma-GTP: 1.6 IU/L

— ChEMBL document CHEMBL3885861, “Open TG-GATES”
